For this assay, the system named is test plant species. Nature of the assay: Post-emergent herbicidal activity test (greenhouse, foliar spray, visual growth reduction). In kind it is in vivo. The following applies: post-emergence, 336 h, 140 g ai/ha, 14 days after application. The method, then:
Post-emergent Test: Seeds or nutlets of the desired test plant species were planted in Sun Gro Metro-Mix® 360 planting mixture, which typically has a pH of 6.0 to 6.8 and an organic matter content of about 30 percent, in plastic pots with a surface area of 64 square centimeters. In some aspects, to ensure good germination and healthy plants, a fungicide treatment and/or other chemical or physical treatment was applied. The plants were grown for 7-21 d in a greenhouse with an approximate 15 h photoperiod which was maintained at 23-29° C. during the day and 22-28° C. during the night. Nutrients and water were added on a regular basis and supplemental lighting was provided with overhead metal halide 1000-Watt lamps as necessary. Plants were used for testing when they reached the first or second true leaf stage. A weighed amount, determined by the highest rate to be tested, of each test compound was placed in a 25 mL glass vial and was dissolved in 4 mL of a 97:3 v/v mixture of acetone and DMSO to obtain concentrated stock solutions. […] The concentrated stock solutions obtained were diluted with 20 mL of an aqueous mixture containing acetone, water, isopropyl alcohol, DMSO, […] crop oil concentrate, and X-77 surfactant in a 48.5:39:10:1.5:1.0:0.02 v/v ratio to obtain spray solutions containing the application rate. Compound requirements are based upon a 12 mL application volume at a rate of 187 liters per hectare (L/ha). Formulated compounds were applied to the plant material with an overhead Mandel track sprayer equipped with […] nozzles calibrated to deliver 187 L/ha over an application area of 0.64 square meters at a spray height of 18 inches (43 cm) above the average plant canopy height. Control plants were sprayed in the same manner with the solvent blank. The treated plants and control plants were placed in a greenhouse as described above and watered by subirrigation to prevent wash-off of the test compounds. After 14 d, the condition of the test plants as compared with that of the nontreated and control plants was determined visually and scored on a scale of 0 to 100 percent where 0 corresponds to no injury and 100 corresponds to complete control. In the reporting of the results, Table A: Percent Growth Reduction Conversion Table was used.

The mark [1] stands for this setting: ALOMY: blackgrass (Alopecurus myosuroides), read-out: Visual Growth Reduction (%) 14 Days After Application, ALOMY.
Where [2] appears, read: AMARE: redroot pigweed (Amaranthus retroflexus), read-out: Visual Growth Reduction (%) 14 Days After Application, AMARE.
The mark [3] stands for this setting: AVEFA: wild oat (Avena fatua), read-out: Visual Growth Reduction (%) 14 Days After Application, AVEFA.
Where [4] appears, read: CHEAL: lambsquarters (Chenopodium album), read-out: Visual Growth Reduction (%) 14 Days After Application, CHEAL.
Setting [5] is: CIRAR: canada thistle (Cirsium arvense), read-out: Visual Growth Reduction (%) 14 Days After Application, CIRAR.
[6] abbreviates: CYPES: yellow nutsedge (Cyperus esculentus), read-out: Visual Growth Reduction (%) 14 Days After Application, CYPES.
The mark [7] stands for this setting: DIGSA: crabgrass (Digitaria sanguinalis), read-out: Visual Growth Reduction (%) 14 Days After Application, DIGSA.
The mark [8] stands for this setting: ECHCG: barnyardgrass (Echinochloa crus-galli), read-out: Visual Growth Reduction (%) 14 Days After Application, ECHCG.
[9] abbreviates: IPOHE: ivy-leaf morning glory (Ipomoea hederacea), read-out: Visual Growth Reduction (%) 14 Days After Application, IPOHE.
Setting [10] is: KCHSC: kochia (Bassia scoparia), read-out: Visual Growth Reduction (%) 14 Days After Application, KCHSC.
Where [11] appears, read: ORYSA: rice (Oryza sativa), read-out: Visual Growth Reduction (%) 14 Days After Application, ORYSA.
The mark [12] stands for this setting: SETFA: giant foxtail (Setaria faberi), read-out: Visual Growth Reduction (%) 14 Days After Application, SETFA.
Setting [13] is: SORVU: grain sorghum (Sorghum vulgare), read-out: Visual Growth Reduction (%) 14 Days After Application, SORVU.
[14] abbreviates: STEME: common chickweed (Stellaria media), read-out: Visual Growth Reduction (%) 14 Days After Application, STEME.
[15] abbreviates: TRZAS: wheat, spring (Triticum aestivum), read-out: Visual Growth Reduction (%) 14 Days After Application, TRZAS.

Read-outs that look alike come from different tables or passages of the source.

Regarding `COC(=O)c1nc(-c2ccc(C=O)cc2Cl)ccc1Cl` [F22, methyl 3-chloro-6-(2-chloro-4-formylphenyl)picolinate], the pest or weed control at 140 g/ha is, setting by setting: under setting [1], 0 to 29%; under setting [2], 0 to 29%; under setting [3], 0 to 29%; under setting [4], 0 to 29%; under setting [5], 0 to 29%; under setting [6], 0 to 29%. Moreover, the pest or weed control at 140 g/ha under setting [7] lay in the range of 0 to 29%; the pest or weed control at 140 g/ha under setting [8] was in the range of 0 to 29%; the pest or weed control at 140 g/ha under setting [9] lay within 0 to 29%; the pest or weed control at 140 g/ha under setting [10] was in the range of 0 to 29%; the pest or weed control at 140 g/ha under setting [11] lay in the range of 0 to 29%; the pest or weed control at 140 g/ha under setting [12] was 0 to 29%. Moreover, the pest or weed control at 140 g/ha under setting [13] is 0 to 29%, the pest or weed control at 140 g/ha under setting [14] fell in the range of 0 to 29% and the pest or weed control at 140 g/ha under setting [15] lay in the range of 0 to 29%.

With `C=Cc1ccc(-c2ccc(Cl)c(C(=O)OC)n2)c(Cl)c1` [F23, methyl 3-chloro-6-(2-chloro-4-vinylphenyl)picolinate], the pest or weed control at 140 g/ha by setting is: under setting [1], 0 to 29%; under setting [2], 0 to 29%; under setting [3], 0 to 29%; under setting [4], 0 to 29%; under setting [5], 0 to 29%; under setting [6], 0 to 29%. The pest or weed control at 140 g/ha reads like this: under setting [7], 0 to 29%; under setting [8], 0 to 29%; under setting [9], 30 to 44%; under setting [10], 0 to 29%; under setting [11], 0 to 29%; under setting [12], 0 to 29%. In addition, the pest or weed control at 140 g/ha is 0 to 29% under setting [13], 0 to 29% under setting [14] and 0 to 29% under setting [15].

Regarding `COC(=O)c1nc(-c2ccc(C(F)(F)F)cc2C#N)ccc1Cl` [F24, Methyl 3-chloro-6-(2-cyano-4-(trifluoromethyl)phenyl) picolinate], the pest or weed control at 140 g/ha under setting [1] lay within 0 to 29%; the pest or weed control at 140 g/ha under setting [2] fell in the range of 85 to 94%; the pest or weed control at 140 g/ha under setting [3] was in the range of 0 to 29%; the pest or weed control at 140 g/ha under setting [4] lay in the range of 95 to 100%; the pest or weed control at 140 g/ha under setting [5] is 95 to 100%; the pest or weed control at 140 g/ha under setting [6] is 0 to 29%. The pest or weed control at 140 g/ha was in the range of 85 to 94% under setting [7]; 85 to 94% under setting [8]; 95 to 100% under setting [9]; 60 to 74% under setting [10]; 0 to 29% under setting [11]; 45 to 59% under setting [12]. For the same compound, the pest or weed control at 140 g/ha runs as follows: under setting [13], 85 to 94%; under setting [14], 0 to 29%; under setting [15], 0 to 29%.

For `COC(=O)c1nc(-c2ccc(-c3ccc(F)cc3)cc2Cl)ccc1Cl` [F25, methyl 3-chloro-6-(3-chloro-4′-fluoro-[1, 1′-biphenyl]-4-yl) picolinate], the pest or weed control at 140 g/ha runs as follows: under setting [1], 0 to 29%; under setting [2], 0 to 29%; under setting [3], 0 to 29%; under setting [4], 0 to 29%; under setting [5], 0 to 29%; under setting [6], 0 to 29%. In addition, the pest or weed control at 140 g/ha under setting [7] lay within 0 to 29%; the pest or weed control at 140 g/ha under setting [8] lay within 0 to 29%; the pest or weed control at 140 g/ha under setting [9] fell in the range of 0 to 29%; the pest or weed control at 140 g/ha under setting [10] is 0 to 29%; the pest or weed control at 140 g/ha under setting [11] fell in the range of 0 to 29%; the pest or weed control at 140 g/ha under setting [12] lay in the range of 0 to 29%. Also, the pest or weed control at 140 g/ha under setting [13] was in the range of 30 to 44%, the pest or weed control at 140 g/ha under setting [14] lay in the range of 0 to 29% and the pest or weed control at 140 g/ha under setting [15] lay within 0 to 29%.

As for `COC(=O)c1nc(-c2ccc(C(C)=O)cc2Cl)ccc1Cl` [F26, methyl 6-(4-acetyl-2-chlorophenyl)-3-chloropicolinate], the pest or weed control at 140 g/ha under setting [1] is 0 to 29%; the pest or weed control at 140 g/ha under setting [2] was in the range of 0 to 29%; the pest or weed control at 140 g/ha under setting [3] lay within 0 to 29%; the pest or weed control at 140 g/ha under setting [4] was 0 to 29%; the pest or weed control at 140 g/ha under setting [5] lay within 0 to 29%; the pest or weed control at 140 g/ha under setting [6] lay in the range of 0 to 29%. Besides, the pest or weed control at 140 g/ha by setting is: under setting [7], 0 to 29%; under setting [8], 0 to 29%; under setting [9], 0 to 29%; under setting [10], 0 to 29%; under setting [11], 0 to 29%; under setting [12], 0 to 29%. Also, the pest or weed control at 140 g/ha by setting is: under setting [13], 0 to 29%; under setting [14], 0 to 29%; under setting [15], 0 to 29%.

Turning to `COC(=O)c1nc(-c2ccc(Br)cc2Cl)ccc1Cl` [F27, Methyl 6-(4-bromo-2-chlorophenyl)-3-chloropicolinate], the pest or weed control at 140 g/ha runs as follows: under setting [1], 0 to 29%; under setting [2], 60 to 74%; under setting [3], 0 to 29%; under setting [4], 45 to 59%; under setting [5], 75 to 84%; under setting [6], 0 to 29%. Besides, the pest or weed control at 140 g/ha lay within 60 to 74% under setting [7]; 0 to 29% under setting [8]; 85 to 94% under setting [9]; 30 to 44% under setting [10]; 0 to 29% under setting [11]; 0 to 29% under setting [12]. Besides, the pest or weed control at 140 g/ha under setting [13] fell in the range of 60 to 74%, the pest or weed control at 140 g/ha under setting [14] was 0 to 29% and the pest or weed control at 140 g/ha under setting [15] lay in the range of 0 to 29%.

Regarding `COC(=O)c1nc(-c2ccc(C(F)(F)F)cc2OC)ccc1Cl` [F28, Methyl 3-chloro-6-(2-methoxy-4-(trifluoromethyl)phenyl)picolinate], the pest or weed control at 140 g/ha reads like this: under setting [1], 0 to 29%; under setting [2], 60 to 74%; under setting [3], 0 to 29%; under setting [4], 60 to 74%; under setting [5], 75 to 84%; under setting [6], 0 to 29%. Moreover, the pest or weed control at 140 g/ha lay within 45 to 59% under setting [7]; 0 to 29% under setting [8]; 95 to 100% under setting [9]; 30 to 44% under setting [10]; 0 to 29% under setting [11]; 30 to 44% under setting [12]. Moreover, the pest or weed control at 140 g/ha reads like this: under setting [13], 75 to 84%; under setting [14], 0 to 29%; under setting [15], 0 to 29%.

Values taken from patent publication US20230017045A1, “PYRIDINE AND PYRIMIDINE CARBOXYLATE HERBICIDES AND METHODS OF USE THEREOF” (Dow AgroSciences LLC, priority 2017, published 2023).
